Data from patent US20070167402A1, “Product of coprecipitation of sparingly soluble substance and water-soluble polymer and process for producing the same” (Meiji Seika Kaisha, Ltd., priority 2003, published 2007).

Test: Test 1: Solubility Test (water as test medium, 37° C., HPLC)
Format: physicochemical
Conditions: for solubility in aqueous methyl cellulose or HPMC solution: test medium e.g. 0.5% aqueous methyl cellulose or HPMC solution, compared with value in water (below 3 μg/mL); for solubility (concentration of Compound A in suspension): 37° C., at the point of 30 minutes in Test 1
Description: Each mixture was sampled at several points of time, and each sample was filtered through a membrane filter (Sunprep LCR13-LG, manufactured by Millipore Corp., Japan).
The measurement conditions used for HPLC in Test 1 were as follows: • Detector: Ultraviolet absorptiometer (measurement wavelength: 246 nm) • Column: Stainless steel tube with an inner diameter of 4.6 mm and a length of 25 cm, for 5 μm liquid chromatography, • Column temperature: Fixed temperature at around 40° C. • Mobile phase: Mixture of methanol and water (55:45) • Flow rate: 1 mL/min

SMILES | solubility in aqueous methyl cellulose or HPMC solution | solubility (concentration of Compound A in suspension) (water) | solubility (water, 37 °C, water, thermodynamic from solid, water 37° C., 200 rpm paddles, at 30 minutes after the beginning of the test and after, read-out: concentration of Compound A in solubility test (FIG. 1))
COc1cc2[nH]c(=O)c3nn(C(OC(=O)OC(C)C)C(C)C)nc3c(=O)c2cc1OC (single isomer, unassigned) [Comparative Example 1, 2-(1-Isopropoxycarbonyloxy-2-methylpropyl)-7,8-dimethoxy-4(5H), 10-dioxo-2H-1,2,3-triazolo[4,5-c][1]benzazepine] | nearly equal to the above-described value of concentration | 0.8 µg/mL | < 3 µg/mL
COc1cc2[nH]c(=O)c3nn(C(OC(=O)OC(C)C)C(C)C)nc3c(=O)c2cc1OC (single isomer, unassigned) [Comparative Example 2, 2-(1-Isopropoxycarbonyloxy-2-methylpropyl)-7,8-dimethoxy-4(5H), 10-dioxo-2H-1,2,3-triazolo[4,5-c][1]benzazepine] | nearly equal to the above-described value of concentration | 2.4 µg/mL | –
